The nature of data set [1]: Biodistribution in rats. The following applies: i.v. The class given is in vivo, male rats. The method, then: Biodistribution in Rats--Methods
The quantitative biodistribution was studied in male rats at 2 minutes, 1 hour and 4 hours post-injection
Rats under light anaesthesia were injected intravenously with 0.1 ml of test agent. Three rats were sacrificed (anaesthesia followed by exsanguination) at 2, 60 and 240 minutes, post-injection. The percentage of the injected dose in the excreta and organs and tissues was determined by dissection and assay for radioactivity in an automatic gamma counter.

In data set [2] the test system is isolated (Langendorff) rat hearts. Description: Isolated perfused heart (Langendorff), hypoxic vs oxic uptake/retention. The conditions noted are these: for Hypoxic/Oxic Ratio (H/O): ^99m Tc complex (or ^123 I-IAZA), 20 min infusion, 15 min washout; for Normalised Hypoxic Retention: relative to ^3 H-misonidazole activity. The protocol:
A 15-minute cold buffer washout period follows. y activity in the heart is monitored using a collimated NaI probe detector positioned over the heart.
Activity in hearts, relative to perfusate activity, is calculated for each nuclide and data evaluated for each compound for activity in hypoxic and oxic hearts (hypoxic:oxic ratio) and also relative to the 3 H-misonidazole activity (normalised retention) using Formula 1. [formula] Results

Where [3] appears, read: 2 min post-injection, ^99m Tc complex.
The mark [4] stands for this setting: 240 min post-injection (third printed value).
Where [5] appears, read: second of two values, 60 or 240 min not assignable.

Molecule `CC(=NO)C(C)(C)NCCCCCNC(C)(C)C(C)=NO` [Compound III, 4,10-diaza-3,3,11,11-tetramethyltridecan-2,12-dione dioxime] yielded a Bladder/Urine in data set [1] (2 min post-injection) of 0.2 percent injected dose. The Blood in data set [1] (2 min post-injection) came out at 18.1 percent injected dose; in data set [1] (setting [5]) it was 1.1 percent injected dose. In addition, the figures for the Gut in data set [1] (2 min post-injection), in data set [1] (60 min post-injection) and in data set [1] (240 min post-injection) were 8.2 percent injected dose, 25.0 percent injected dose and 35.6 percent injected dose, respectively. Besides, the Kidney in data set [1] (2 min post-injection) amounted to 11.3 percent injected dose; in data set [1] (setting [5]), 4.2 percent injected dose. For the same molecule, the results for the Liver in data set [1] (2 min post-injection) and in data set [1] (setting [5]) were 9.7 percent injected dose and 5.4 percent injected dose, respectively. The Muscle was determined as 26.9 percent injected dose in data set [1] (setting [3]), 10.1 percent injected dose in data set [1] (60 min post-injection) and 3.3 percent injected dose in data set [1] (setting [4]).
Consider `CCC(=NO)C(C)(C)NCCCCNC(C)(C)C(C)=NO` [Compound IX, 4,9-diaza-3,3,10,10-tetramethyltridecan-2,11-dione dioxime], for which, in data set [2], the “Hypoxic/Oxic Ratio (H/O)” value stood at 8.4 and the “Normalised Hypoxic Retention” value is 2.1. Also, in data set [1] (2 min post-injection), the Bladder/Urine came out at 0.8 percent injected dose, the Blood worked out at 10.1 percent injected dose, the Gut was 13.8 percent injected dose and the Kidney stood at 7.7 percent injected dose. For the same molecule, in data set [1] (2 min post-injection), the Liver was 12.9 percent injected dose. In data set [1] (setting [3]), the Muscle is 32.1 percent injected dose. Besides, in data set [1] (60 min post-injection), the Gut is recorded as 31.6 percent injected dose and the Muscle turned out to be 8.3 percent injected dose. The molecule also had a Muscle in data set [1] (setting [4]) of 3.0 percent injected dose. Further, in data set [1] (240 min post-injection), the Gut came out at 37.7 percent injected dose. In data set [1] (setting [5]), this molecule returned a Blood of 2.0 percent injected dose, a Kidney of 2.2 percent injected dose and a Liver of 11.2 percent injected dose.
With `CC(C)(C=NO)NCCCCNC(C)(C)C=NO` [Compound VI, 3,8-diaza-2,2,9,9-tetramethyldecan-1,10-dial dioxime], in data set [2], the “Hypoxic/Oxic Ratio (H/O)” value came to 3.2 and the “Normalised Hypoxic Retention” value is on record as 0.67. In data set [1] (2 min post-injection), this molecule showed a Bladder/Urine of 0.6 percent injected dose, a Blood of 13.5 percent injected dose, a Gut of 8.6 percent injected dose and a Kidney of 12.5 percent injected dose. For the same molecule, in data set [1] (2 min post-injection), the Liver is given as 12.2 percent injected dose. This molecule also displayed a Muscle in data set [1] (setting [3]) of 24.8 percent injected dose. For the same molecule, in data set [1] (60 min post-injection), the Gut was determined as 16.3 percent injected dose and the Muscle came to 13.4 percent injected dose. This molecule also gave a Muscle in data set [1] (setting [4]) of 10.0 percent injected dose. The same molecule registered a Gut in data set [1] (240 min post-injection) of 21.2 percent injected dose. Moreover, in data set [1] (setting [5]), the Blood turned out to be 5.3 percent injected dose, the Kidney is recorded as 10.4 percent injected dose and the Liver is 13.7 percent injected dose.
Turning to `CCC(=NO)C(C)(C)NCCCCNC(C)(C)C=NO` [Compound VII, 3,8-diaza-10-(hydroxyimino)-2,2,9,9-tetramethyl dodecanal oxime], in data set [2], the “Hypoxic/Oxic Ratio (H/O)” value is given as 8.8 and the “Normalised Hypoxic Retention” value is reported as 1.5. In data set [1] (2 min post-injection), this molecule showed a Bladder/Urine of 0.8 percent injected dose, a Blood of 11.8 percent injected dose, a Gut of 12.1 percent injected dose and a Kidney of 9.8 percent injected dose. The same molecule came in with a Liver in data set [1] (2 min post-injection) of 12.9 percent injected dose. In data set [1] (setting [3]), this molecule displayed a Muscle of 25.6 percent injected dose. In data set [1] (60 min post-injection), this molecule came in with a Gut of 23.2 percent injected dose and a Muscle of 9.2 percent injected dose. Further, the Muscle in data set [1] (setting [4]) worked out at 7.5 percent injected dose. The Gut in data set [1] (240 min post-injection) is listed as 31.3 percent injected dose. In data set [1] (setting [5]), the Blood is reported as 3.0 percent injected dose, the Kidney is recorded as 3.4 percent injected dose and the Liver is on record as 11.6 percent injected dose.
As for `CCC(=NO)C(C)(C)NCCCCNC(C)(C)C(CC)=NO` [Compound VIII, 5,10-diaza-4,4,11,11-tetramethyltetradecan-3,12-dione dioxime], in data set [2], the “Hypoxic/Oxic Ratio (H/O)” value was 34 and the “Normalised Hypoxic Retention” value came to 2.2. In data set [1] (2 min post-injection), the Bladder/Urine is on record as 0.6 percent injected dose, the Blood amounted to 9.0 percent injected dose, the Gut turned out to be 13.9 percent injected dose and the Kidney is given as 7.8 percent injected dose. The same molecule showed a Liver in data set [1] (2 min post-injection) of 13.6 percent injected dose. The Muscle in data set [1] (setting [3]) is 29.7 percent injected dose. In data set [1] (60 min post-injection), this molecule yielded a Gut of 36.2 percent injected dose and a Muscle of 7.4 percent injected dose. For the same molecule, the Muscle in data set [1] (setting [4]) worked out at 2.4 percent injected dose. The same molecule displayed a Gut in data set [1] (240 min post-injection) of 46.7 percent injected dose. In data set [1] (setting [5]), this molecule returned a Blood of 1.8 percent injected dose, a Kidney of 2.5 percent injected dose and a Liver of 13.1 percent injected dose.
In data set [1] (2 min post-injection), `CC(=NO)C(C)NCCCCNC(C)C(C)=NO` (stereo not shown) [Compound XIII, 4,9-Diaza-3,10-dimethyldodecan-2,11-dione dioxime] had a Bladder/Urine of 1.1 percent injected dose, a Blood of 9.8 percent injected dose, a Gut of 11.4 percent injected dose and a Kidney of 8.8 percent injected dose. In data set [1] (2 min post-injection), this molecule had a Liver of 18.4 percent injected dose. In data set [1] (setting [3]), this molecule displayed a Muscle of 25.7 percent injected dose. In data set [1] (60 min post-injection), this molecule registered a Gut of 23.0 percent injected dose and a Muscle of 10.1 percent injected dose. The molecule further showed a Muscle in data set [1] (setting [4]) of 7.1 percent injected dose. This molecule registered a Gut in data set [1] (240 min post-injection) of 25.6 percent injected dose. In data set [1] (setting [5]), this molecule showed a Blood of 5.0 percent injected dose, a Kidney of 8.8 percent injected dose and a Liver of 20.4 percent injected dose.
Take `O=[N+]([O-])c1nccn1[C@H]1O[C@H](C[123I])[C@@H](O)[C@@H]1O` [^123 I-IAZA, ^123 I-iodoazomycin arabinoside, reference compound]: in data set [2], the “Hypoxic/Oxic Ratio (H/O)” value is given as 10 and the “Normalised Hypoxic Retention” value stood at 2.7.
